In patent publication US20070049564A1 (Wyeth, priority 2005, published 2007):
Values after ≈ are worked out from the molar mass of the structure shown. Read-outs that look alike come from different tables or passages of the source.

How the values were obtained:
[1] = test system: E. coli GC 2236; experiment: MIC, broth microdilution; conditions: Escherichia coli, GC2236, E. coli GC 2236
[2] = test system: E. coli GC 2231; experiment: MIC, broth microdilution; conditions: Escherichia coli, GC2231, E. coli GC 2231
[3] = test system: E. coli GC 2232; experiment: MIC, broth microdilution; conditions: Escherichia coli, GC2232, E. coli GC 2232
[4] = test system: E. coli GC 2272; experiment: MIC, broth microdilution; conditions: Escherichia coli, GC2272, E. coli GC 2272
[5] = test system: P. aeruginosa GC 2214; experiment: MIC, broth microdilution; conditions: Pseudomonas aeruginosa, GC2214, P. aeruginosa GC 2214
[6] = test system: S. aureus GC 1131; experiment: MIC, broth microdilution; conditions: Staphylococcus aureus, GC1131, S. aureus GC 1131
[7] = test system: S. aureus GC 4536; experiment: MIC, broth microdilution; conditions: Staphylococcus aureus, GC4536, S. aureus GC 4536
[8] = test system: S. aureus GC 2216; experiment: MIC, broth microdilution; conditions: Staphylococcus aureus, GC2216, S. aureus GC 2216
[9] = test system: S. epidermidis GC 4935; experiment: MIC, broth microdilution; conditions: Staphylococcus epidermidis, GC4935, S. epidermidis GC 4935
[10] = test system: E. faecalis GC 4555; experiment: MIC, broth microdilution; conditions: Enterococcus faecalis, GC4555, E. faecalis GC 4555
[11] = test system: E. faecalis GC 2265; experiment: MIC, broth microdilution; conditions: Enterococcus faecalis, GC2265, E. faecalis GC 2265
[12] = test system: E. faecalis GC 2267; experiment: MIC, broth microdilution; conditions: Enterococcus faecalis, GC2267, E. faecalis GC 2267
Procedure: Antimicrobial susceptibility testing. The in vitro activities of the antibiotics are determined by the broth microdilution method as recommended by the National Committee for Clinical Laboratory Standards (NCCLS) (1). Mueller-Hinton II broth (MHBII)(BBL Cockeysville, Md.) is the medium employed in the testing procedures. Microtiter plates containing serial dilutions of each antimicrobial agent are inoculated with each organism to yield the appropriate density (10^5 CFU/ml) in a 100 μl final volume. The plates are incubated for 18-22 hours at 35° C. in ambient air.
Representative compounds were first incubated in mouse serum for an hour prior to the in vitro testing against a panel of selected gram-positive and gram-negative bacteria strains. All compounds were also pre-incubated in water for an hour prior to testing as control.

[13] = test system: E. faecalis GC 2242; experiment: MIC, broth microdilution; conditions: Enterococcus faecalis, GC2242, E. faecalis GC 2242
[14] = test system: E. faecium GC 2243; experiment: MIC, broth microdilution; conditions: Enterococcus faecium, GC2243, E. faecium GC 2243
[15] = test system: S. pneumoniae* GC 4465; experiment: MIC, broth microdilution; conditions: Streptococcus pneumoniae, S. pneumoniae* GC 4465
[16] = test system: S. pneumoniae+ GC 4465; experiment: MIC, broth microdilution; conditions: Streptococcus pneumoniae, S. pneumoniae+ GC 4465
[17] = test system: c. albicans GC 3066; experiment: MIC, broth microdilution
[18] = test system: E. coli; experiment: Range of MIC for E. coli strains; conditions: Escherichia coli
[19] = test system: Staph.; experiment: Range of MIC for Staph. strains, including MRSA; conditions: Staphylococcus aureus, MRSA
[20] = test system: Staph. aureus Smith; experiment: In vivo activity (oral, iv; ED50) against Staph. aureus Smith in mice
Procedure: Representative examples of compounds of Formula I were tested for the oral efficacy using S. aureus Smith in mice.

[21] = c. albicans GC 3066, Water pre-incubation
[22] = 20 h, read-out: Range of MIC, E. coli (Mouse Serum)
[23] = read-out: Range of MIC, E. coli (Water)
[24] = read-out: Range of MIC, E. coli (mouse serum)
[25] = read-out: Range of MIC, E. coli (water)
[26] = read-out: Range of MIC, Staph (Mouse Serum)
[27] = read-out: Range of MIC, Staph (Water)
[28] = read-out: Range of MIC, Staph. (mouse serum)
[29] = read-out: Range of MIC, Staph. (water)
[30] = Staphylococcus aureus, in Mus musculus, po, read-out: ED50 Staph Smith SOD
[31] = iv, read-out: ED50 Staph Smith SIV

Work on CCCN(CC(=O)Nc1cc(N(C)C)c2c(c1O)C(=O)C1=C(O)[C@]3(O)C(=O)C(C(N)=O)=C(O)[C@@H](N(C)C)[C@@H]3C[C@@H]1C2)C(=O)OCOC(=O)C(C)(C)C [Example 9, ({[(2-{[(5aR,6aS,7S,10aS)-9-(aminocarbonyl)-4,7-bis(dimethylamino)-1,8,10a,11-tetrahydroxy-10,12-dioxo-5,5a,6,6a,7,10,10a,12-octahydrotetracen-2-yl]amino}-2-oxoethyl)(propyl)amino]carbonyl}oxy)methyl pivalate] yielded an MIC ([1]; Mouse Serum pre-incubation) of 1 µg/mL (≈ 1.37 µM), an MIC ([1]; Water pre-incubation) of 8 µg/mL (≈ 11 µM) and an MIC ([2]; Mouse Serum pre-incubation) of 2 µg/mL (≈ 2.74 µM). The MIC ([2]; Water pre-incubation) was 64 µg/mL (≈ 87.7 µM), the MIC ([3]; Mouse Serum pre-incubation) was 1 µg/mL (≈ 1.37 µM) and the MIC ([3]; Water pre-incubation) was 8 µg/mL (≈ 11 µM). It also gave an MIC ([4]; Mouse Serum pre-incubation) of 0.5 µg/mL (≈ 0.685 µM), an MIC ([4]; Water pre-incubation) of 8 µg/mL (≈ 11 µM) and an MIC ([5]; Mouse Serum pre-incubation) of 16 µg/mL (≈ 21.9 µM). For the same compound, the MIC ([5]; Water pre-incubation) was over 64 µg/mL, the MIC ([6]; Mouse Serum pre-incubation) was under 0.06 µg/mL and the MIC ([6]; Water pre-incubation) was 0.25 µg/mL (≈ 0.343 µM). For the same compound, the MIC ([7]; Mouse Serum pre-incubation) was 0.5 µg/mL (≈ 0.685 µM), the MIC ([7]; Water pre-incubation) was 0.5 µg/mL (≈ 0.685 µM) and the MIC ([8]; Mouse Serum pre-incubation) was 0.25 µg/mL (≈ 0.343 µM). It also gave an MIC ([8]; Water pre-incubation) of 0.5 µg/mL (≈ 0.685 µM), an MIC ([9]; Mouse Serum pre-incubation) of 0.25 µg/mL (≈ 0.343 µM) and an MIC ([9]; Water pre-incubation) of 1 µg/mL (≈ 1.37 µM). The MIC ([10]; Mouse Serum pre-incubation) was 0.5 µg/mL (≈ 0.685 µM), the MIC ([10]; Water pre-incubation) was 2 µg/mL (≈ 2.74 µM) and the MIC ([11]; Mouse Serum pre-incubation) was 1 µg/mL (≈ 1.37 µM). It also gave an MIC ([11]; Water pre-incubation) of 2 µg/mL (≈ 2.74 µM), an MIC ([12]; Mouse Serum pre-incubation) of 1 µg/mL (≈ 1.37 µM) and an MIC ([12]; Water pre-incubation) of 2 µg/mL (≈ 2.74 µM). The MIC ([13]; Mouse Serum pre-incubation) was 0.5 µg/mL (≈ 0.685 µM), the MIC ([13]; Water pre-incubation) was 1 µg/mL (≈ 1.37 µM) and the MIC ([14]; Mouse Serum pre-incubation) was 0.25 µg/mL (≈ 0.343 µM). For the same compound, the MIC ([14]; Water pre-incubation) was 0.5 µg/mL (≈ 0.685 µM), the MIC ([15]; Mouse Serum pre-incubation) was under 0.06 µg/mL and the MIC ([15]; Water pre-incubation) was under 0.06 µg/mL. It also gave an MIC ([16]; Mouse Serum pre-incubation) of 2 µg/mL (≈ 2.74 µM), an MIC ([16]; Water pre-incubation) of 2 µg/mL (≈ 2.74 µM) and an MIC ([17]; Candida albicans, GC3066) of over 64 µg/mL. For the same compound, the MIC [17, 21] was over 64 UG/ML, the MIC [18, 22] was 0.5 to 2 µg/mL (≈ 0.685 to 2.74 µM) and the MIC [18, 23] was 4 to 64 µg/mL (≈ 5.48 to 87.7 µM). The MIC [18, 24] was 0.5 to 2 µg/mL (≈ 0.685 to 2.74 µM), the MIC [18, 25] was 4 to 64 µg/mL (≈ 5.48 to 87.7 µM) and the MIC [19, 26] was 0.06 to 2 µg/mL (≈ 0.0822 to 2.74 µM). The MIC [19, 27] was 0.12 to 2 µg/mL (≈ 0.164 to 2.74 µM), the MIC [19, 28] was 0.06 to 1 µg/mL (≈ 0.0822 to 1.37 µM) and the MIC [19, 29] was 0.12 to 2 µg/mL (≈ 0.164 to 2.74 µM). The ED50 [20, 30] was 11.3 mg/kg and the ED50 [20, 31] was 0.32 mg/kg.

CCCN(CC(=O)Nc1cc(N(C)C)c2c(c1O)C(=O)C1=C(O)[C@]3(O)C(=O)C(C(N)=O)=C(O)[C@@H](N(C)C)[C@@H]3C[C@@H]1C2)C(=O)OCOC(=O)C(C)C [Example 10, ({[(2-{[(5aR,6aS,7S,10aS)-9-(aminocarbonyl)-4,7-bis(dimethylamino)-1,8,10a,11-tetrahydroxy-10,12-dioxo-5,5a,6,6a,7,10,10a,12-octahydrotetracen-2-yl]amino}-2-oxoethyl)(propyl)amino]carbonyl}oxy)methyl 2-methylpropanoate] was tested, and the MIC ([1]; Mouse Serum pre-incubation) was 0.5 µg/mL (≈ 0.699 µM), the MIC ([1]; Water pre-incubation) was 8 µg/mL (≈ 11.2 µM) and the MIC ([2]; Mouse Serum pre-incubation) was 2 µg/mL (≈ 2.79 µM). It also gave an MIC ([2]; Water pre-incubation) of 32 µg/mL (≈ 44.7 µM), an MIC ([3]; Mouse Serum pre-incubation) of 0.5 µg/mL (≈ 0.699 µM) and an MIC ([3]; Water pre-incubation) of 8 µg/mL (≈ 11.2 µM). The MIC ([4]; Mouse Serum pre-incubation) was 0.5 µg/mL (≈ 0.699 µM), the MIC ([4]; Water pre-incubation) was 8 µg/mL (≈ 11.2 µM) and the MIC ([5]; Mouse Serum pre-incubation) was 16 µg/mL (≈ 22.4 µM). It also gave an MIC ([5]; Water pre-incubation) of over 64 µg/mL, an MIC ([6]; Mouse Serum pre-incubation) of 0.12 µg/mL (≈ 0.168 µM) and an MIC ([6]; Water pre-incubation) of 0.12 µg/mL (≈ 0.168 µM). It also gave an MIC ([7]; Mouse Serum pre-incubation) of 0.25 µg/mL (≈ 0.349 µM), an MIC ([7]; Water pre-incubation) of 0.5 µg/mL (≈ 0.699 µM) and an MIC ([8]; Mouse Serum pre-incubation) of 0.25 µg/mL (≈ 0.349 µM). For the same compound, the MIC ([8]; Water pre-incubation) was 0.5 µg/mL (≈ 0.699 µM), the MIC ([9]; Mouse Serum pre-incubation) was 0.5 µg/mL (≈ 0.699 µM) and the MIC ([9]; Water pre-incubation) was 1 µg/mL (≈ 1.4 µM). For the same compound, the MIC ([10]; Mouse Serum pre-incubation) was 0.5 µg/mL (≈ 0.699 µM), the MIC ([10]; Water pre-incubation) was 1 µg/mL (≈ 1.4 µM) and the MIC ([11]; Mouse Serum pre-incubation) was 1 µg/mL (≈ 1.4 µM). The MIC ([11]; Water pre-incubation) was 1 µg/mL (≈ 1.4 µM), the MIC ([12]; Mouse Serum pre-incubation) was 1 µg/mL (≈ 1.4 µM) and the MIC ([12]; Water pre-incubation) was 2 µg/mL (≈ 2.79 µM). For the same compound, the MIC ([13]; Mouse Serum pre-incubation) was 0.25 µg/mL (≈ 0.349 µM), the MIC ([13]; Water pre-incubation) was 0.5 µg/mL (≈ 0.699 µM) and the MIC ([14]; Mouse Serum pre-incubation) was under 0.06 µg/mL. For the same compound, the MIC ([14]; Water pre-incubation) was 0.12 µg/mL (≈ 0.168 µM), the MIC ([15]; Mouse Serum pre-incubation) was under 0.06 µg/mL and the MIC ([15]; Water pre-incubation) was under 0.06 µg/mL. For the same compound, the MIC ([16]; Mouse Serum pre-incubation) was 1 µg/mL (≈ 1.4 µM), the MIC ([16]; Water pre-incubation) was 1 µg/mL (≈ 1.4 µM) and the MIC ([17]; Candida albicans, GC3066) was over 64 µg/mL. It also gave an MIC [17, 21] of over 64 UG/ML, an MIC [18, 22] of 0.25 to 2 µg/mL (≈ 0.349 to 2.79 µM) and an MIC [18, 23] of 4 to 32 µg/mL (≈ 5.59 to 44.7 µM). For the same compound, the MIC [18, 24] was 0.25 to 2 µg/mL (≈ 0.349 to 2.79 µM), the MIC [18, 25] was 4 to 32 µg/mL (≈ 5.59 to 44.7 µM) and the MIC [19, 26] was 0.25 to 2 µg/mL (≈ 0.349 to 2.79 µM). The MIC [19, 27] was 0.12 to 2 µg/mL (≈ 0.168 to 2.79 µM), the MIC [19, 28] was 0.25 to 2 µg/mL (≈ 0.349 to 2.79 µM) and the MIC [19, 29] was 0.12 to 2 µg/mL (≈ 0.168 to 2.79 µM). The ED50 [20, 30] was 13.6 mg/kg and the ED50 [20, 31] was 0.36 mg/kg.
